Format in all cases: cell-based
Data set [1] has as its system SV40. Description: SV40 infection of HeLa-S3 cells, flow cytometry for large T antigen. The note with it: 14 μM, MOI of ~1, 48 h.p.i. As to the method:
HeLa-S3 cells were treated with 14 μM P16/16 peptide or vehicle for one hour then infected with SV40 at MOI of ˜1. Forty-eight h.p.i., cells were washed, fixed, and permeabilized with cold methanol for 30 min. Cells were stained for intracellular SV40 large T antigen with fluorophore-conjugated monoclonal antibody PAb101, followed by flow cytometry. The histograms show number of cells and […] fluorescence in the absence or presence of peptide. Traces correspond to mock-infected cells (Line C), mock-infected cells in the presence of peptides (Line D), SV40-infected cells (Line A), and SV40-infected cells in the presence of peptides (Line B).
For studies of SV40 infection, 7.5×105 HeLa-S3 in 6-well plates were incubated with peptides prior to infection. Cells were infected with a crude preparation of SV40 at MOI of ˜1 and fixed with 4% paraformaldehyde at 48 h.p.i. Samples were stained with FITC-conjugated anti-large T antigen antibody (Pab101) (Santa Cruz, pSC147 FITC), followed by flow cytometry to determine the mean fluorescent intensity of T antigen staining.
(In flow cytometry, cells or beads pass a laser one at a time.)

Data set [2] relates to retromer subunit VPS35 / HPV16 L1. Description: Proximity ligation assay for HPV16 L1 and VPS35 in peptide-treated infected cells. The note with it: 14 μM, MOI of 200, eight h.p.i. How it is done: FIG. 19A depicts uninfected HeLa cells were incubated with 14 μM bP16/16 or bPDM/16 for three hours (“b” refers to peptides with an N-terminal biotin moiety). Cells were then fixed, permeabilized, and stained with AlexaFluor-streptavidin (green) and with anti-VPS35 (red). Overlapping signal is pseudocolored yellow. Nuclei were stained blue with DAPI. Mander's correlation coefficients for overlap between streptavidin and VPS35 staining are shown at right, with each spot representing an individual cell. Approximately 100 cells were analyzed for each condition. […] Images were processed by Fiji and quantitatively analyzed by BlobFinder software to measure total fluorescence intensity per cell in each sample. […]
For the proximity ligation assay, after an hour incubation with peptides, HeLa-S3 cells were infected with wild-type PSV at MOI of 200 or mutant PsV containing the same number of reporter plasmid genomes. […] The nuclei were stained by using Abcam fluorescence mounting medium with DAPI and images were acquired by a Leica SP5 inverted fluorescence microscope. […] The images were processed by Fiji and quantitatively analyzed by BlobFinder software to measure total fluorescence intensity in each sample. The average fluorescence intensity per cell in each sample was normalized to the control sample as indicated in each experiment. […]

The test system of data set [3] is HPV16 PsV containing GFP11-tagged L2. Put plainly: Split GFP assay with peptide, HaCaT/GFP1-10NES cells. The note with it: 30 μM, MOI of 2000, three h.p.i. How it is done:
FIG. 26A depicts clonal HaCaT/GFP1-10NES cells expressing cytosolic GFP1-10 infected at MOI of 2000 with untagged HPV16 or with HPV16 PsV containing GFP11-tagged L2 in the absence or presence of 30 μM P16/16. Three h.p.i., cells were stained with Hoescht 33342 to visualize nuclei (blue) and examined by confocal microscopy for GFP fluorescence. FIG. 26B the corrected total cellular fluorescence (CTCF) of each cell was calculated and plotted in arbitrary units from three independent experiments. n.s., not significant. FIG. 26C depicts HaCaT/GFP-10NES cells infected as described in FIG. 26A with wild-type HPV16 PsV in the presence of 30 μM P16/16 or in its absence for three hours, followed by removal of PsV and incubation with medium containing peptide for an additional 48 hours. Cells were assessed by flow cytometry to determine reporter protein expression. Infectivity was normalized with that in the absence of peptide. **, p<0.01.
To determine if the cytoplasmic protrusion of L2 of PsV is inhibited by peptides, the split GFP assay was performed. 3×104 clonal HaCaT/GFP1-10NES expressing GFP1-10NES in the cytoplasm were seeded in eight-chambered glass slides and incubated with peptides for an hour prior to infection at MOI of ˜2000 with HPV16 PsV containing wild-type L2 or L2 containing inserted GFP11. […]

Data set [4] deals with HeLa-S3 cells. Put plainly: CellTiter-Fluor viability assay. The note with it: 14 μM for 4 or 24 hours. As to the method:
HeLa-S3 cells were incubated with medium, medium plus vehicle, or medium plus 14 μM P16/16 for 4 or 24 hours. Viability assay was performed by using the CellTiter-Fluor viability assay protocol (Promega, Cat #G6082). Briefly, an equal volume of CellTiter-Fluor reagent was added to each well without removing the medium, mixed briefly, then incubated for one hour at 37° C. Fluorescence was measured by using a GloMax Explorer Multimode Microplate Reader (380-400 nmEx/505 nmEm). n.s., not significant.

For data set [5], the system named is authentic HPV16. Description: Inhibition of authentic HPV16 in HeLa cells, qRT-PCR for viral mRNA. The settings on record: 14 μM, HPV16 from organotypic raft cultures, qRT-PCR 48 h.p.i. As to the method: To measure the inhibition of infection by authentic HPV16, HeLa cells were infected with 5 μL raft-derived HPV16 (obtained from Craig Meyers, Hershey Medical Center) or with HPV16 PsV in the presence and absence of 14 μM P16/16, and total RNA was isolated 48 h.p.i. by using the RNeasy kit following the manufacturer's instructions. RNA was reverse-transcribed into cDNA by iScript cDNA Synthesis kit. The cDNA was quantified in triplicate by using SYBR Green Supermix real-time PCR detection system and primers for HPV16 E7 or HcRed. Actin mRNA were used for normalization.

Consider `CC[C@H](C)[C@H](NC(=O)[C@@H](NC(=O)[C@H](Cc1ccc(O)cc1)NC(=O)[C@H](CCC(N)=O)NC(=O)[C@@H]1CCCN1C(=O)[C@H](CO)NC(=O)[C@@H](N)CS)[C@@H](C)O)C(=O)N[C@H](C(=O)N[C@@H](C)C(=O)N[C@@H](CC(=O)O)C(=O)N[C@@H](C)C(=O)NCC(=O)N[C@@H](CC(=O)O)C(=O)N[C@@H](Cc1ccccc1)C(=O)N[C@@H](Cc1ccc(O)cc1)C(=O)N[C@@H](CC(C)C)C(=O)N[C@@H](Cc1c[nH]cn1)C(=O)N1CCC[C@H]1C(=O)N[C@@H](CO)C(=O)N[C@@H](Cc1ccc(O)cc1)C(=O)N[C@@H](Cc1ccc(O)cc1)C(=O)N[C@@H](CCSC)C(=O)N[C@@H](CC(C)C)C(=O)N[C@@H](CCCNC(=N)N)C(=O)N[C@@H](CCCCN)C(=O)N[C@@H](CCCNC(=N)N)C(=O)N[C@@H](CCCNC(=N)N)C(=O)N[C@@H](CCCCN)C(=O)N[C@@H](CCCNC(=N)N)C(=O)O)[C@@H](C)CC` [P16/16], for which, in data set [1], the “inhibition of SV40 infection” value was “did not inhibit”. For the same molecule, the “interaction of retromer with HPV (VPS35/L1 PLA)” value in data set [2] is on record as “inhibited the interaction of retromer with HPV”. In addition, the “protrusion of L2 C terminus into the cytoplasm (reconstituted GFP)” value in data set [3] is on record as “did not inhibit protrusion of the C terminus of the L2 protein into the cytoplasm”. Besides, in data set [4], the “toxicity (morphology and cell viability assay)” value is on record as “no apparent toxicity”. Also, in data set [5], the “inhibition of authentic HPV16” value was “inhibited”.

The record behind these values is patent publication US12060388B2, “Cell-penetrating peptides and methods of use thereof” (priority 2018, dated 2024).
